# Experiments:
# [1] = tested on: cytoplasmic RNA and nucleoli in SiHa cells; test: Staining live SiHa cells with CAPY-AP, confocal laser scanning microscopy; format: cell-based; settings: 5 μM CAPY-AP, 30 min, 488 nm laser, green channel 500-600 nm
# Method: Obtaining method: the SiHa cells are incubated with CAPY-AP for 30 min, and then the cells are irradiated with a 488 nm laser under a confocal laser scanning microscope to obtain micrographs. FIG. 1a is the image of green channel at 500-600 nm from CAPY-AP excited by the 488 nm laser. FIG. 1B is a differential interference contrast (DIC) micrograph scanned by a bright field laser. FIG. 1c is the merge image of FIG. 1a and FIG. 1b.
# SiHa cells were cultured in adherent conditions in a culture media containing 10% fetal bovine serum and incubated in a 37° C. and 5% CO2 saturated humidity incubator. The culture media was replaced every 2-3 days for passage once. […]
# First, DMSO solution of a 5 mM CAPY-AP was prepared as a stock solution. […] After staining, the cover glass with cells was taken out, excess probes were washed off, the cover glass with the cell growth side facing down covers a glass slide, and the staining locations, fluorescence distribution and brightness changes of the cells were observed under a confocal laser scanning microscope (the cells were irradiated with a 488 nm laser).
# [2] = tested on: RNA in SiHa cells; test: RNase digestion assay: staining of RNase-treated fixed SiHa cells with CAPY-AP; format: cell-based; settings: RNase 25 μg/mL 2 hours, then 5 μM CAPY-AP 30 min, 488 nm laser, green channel 500-600 nm
# Text: Obtaining method: the fixed SiHa cells treated with RNase and then stained with CAPY-AP. Under the confocal laser scanning microscope, the cells are irradiated with the 488 nm laser to obtain micrographs. FIG. 2a is the image of a green channel at 500-600 nm from CAPY-AP excited by the 488 nm laser. FIG. 2b is a differential interference contrast (DIC) micrograph scanned by a bright field laser. FIG. 2c is the merge image of FIG. 2a and FIG. 2b.
# Preparation of fixed cells: first, the cover glass covered with the SiHa cells prepared in Example 2 was immersed in a 4% paraformaldehyde solution for 30 min, and then 0.5%
# Triton X-100 was used for permeation at room temperature for 2 min to obtain the fixed cells.
# A group of the above fixed cells was taken out and digested in an incubator for 2 hours after RNase with a 25 μg/mL concentration was added, then washed with PBS 3 times and stained with a 5 μM CAPY-AP in a CO2 incubator for 30 min. The cover glass with stained cells was taken out, excess dyes were washed off, the cover glass with a cell growth side facing down covers a glass slide, and the staining locations, fluorescence distribution and brightness changes of the cells were observed under a confocal laser scanning microscope (the cells were irradiated with a 488 nm laser) and recorded.
# [3] = tested on: cytoplasmic RNA and nucleoli in human mammary cancer tissue and normal mammary tissue; test: Fluorescence staining of frozen sections of human mammary cancer tissue and its adjacent normal tissue
# Text: Obtaining method: after the frozen sections of human mammary cancer tissue and its adjacent normal tissue are stained with CAPY-AP and Hoechst 33342, the tissue is irradiated with 488 nm and 405 nm lasers respectively under the confocal laser scanning microscope, and superposition images of two channels (blue channel: 420-450 nm, green channel: 500-600 nm) are obtained. The frozen sections of the same tissue are stained with H&E to obtain H&E staining images. Amongst, the enlarged images come from two box regions of fluorescent staining images of mammary cancer tissue.
# (§1) The frozen sections of the mammary cancer tissue and its adjacent normal tissue from intraoperative pathological samples of breast cancer patients (Pathology No. 57977.18) were obtained from the department of pathology, Qilu Hospital of Shandong University. In order to stain, the frozen sections were immersed into a 10% EtOH PBS buffer solution with a 10 μM CAPY-AP and a 10 μM Hoechst 33342 for 10 min, and then observed under a confocal laser scanning microscope (the tissue was irradiated with 488 nm and 405 nm lasers respectively) to obtain fluorescence images. The fluorescence images were compared with the corresponding H&E images.
# as §1, with “60551.18)” for “57977.18)”
# as §1, with “61864.18)” for “57977.18)”
# [4] = 10 μM CAPY-AP with 10 μM Hoechst 33342, 10% EtOH PBS, 10 min, 488 nm and 405 nm lasers
smiles,measurement,setting,value
"CCn1c2ccccc2c2cc(/C=C/c3cc[n+](CCCN)cc3)ccc21 [CAPY-AP, (E)-1-(3-aminopropyl)-4-(2-(9-ethyl-9H-carbazol-3-yl)vinyl)pyridine-1-ium dibromide]",staining locations and fluorescence distribution in live SiHa cells (FIG. 1),[1],obvious green light distribution in cytoplasmic and nucleolar areas
same,fluorescence of fixed SiHa cells after RNase treatment (FIG. 2),[2],fluorescence in the nucleoli and cytoplasm is almost invisible
same,"fluorescence distribution in frozen sections, Pathology No. 57977.18 (FIG. 3)",[3]; [4],"obvious green light distribution in cytoplasmic and nucleolar areas, while no fluorescence exists in extracellular matrices"
same,"imaging of cytoplasmic RNA and nucleoli in frozen sections, Pathology No. 60551.18 (FIG. 4)",[3]; [4],can specifically image the cytoplasmic RNA and nucleoli in the frozen sections of the human mammary pathological tissue
same,"imaging of cytoplasmic RNA and nucleoli in frozen sections, Pathology No. 61864.18 (FIG. 5)",[3]; [4],can specifically image the cytoplasmic RNA and nucleoli in the frozen sections of the human mammary pathological tissue
same,"imaging of cytoplasmic RNA and nucleoli in frozen sections, summary of FIG. 3, FIG. 4 and FIG. 5","[3]; three pathology samples together, CAPY-AP and Hoechst 33342",can specifically image the cytoplasmic RNA and nucleoli in frozen sections of human mammary pathological tissue
